Source: PMC6220894 (Food and chemical toxicology : an international journal …, 2018)
Where two headings read alike, the source gives them in different places.

How the values were obtained:
[1] = test system: Salmonella typhimurium TA 1537; assay: Ames bacterial reverse mutation assay, plate incorporation method; assay type: cell-based
[2] = test system: Salmonella typhimurium TA 98; assay: as above; assay type: cell-based
[3] = test system: Salmonella typhimurium TA 1537; assay: Ames bacterial reverse mutation assay, pre-incubation method; assay type: cell-based
[4] = test system: Salmonella typhimurium TA 98; assay: as above; assay type: cell-based
[5] = test system: Salmonella typhimurium TA 1535; assay type: cell-based; settings: plate incorporation
[6] = test system: Salmonella typhimurium TA 100; assay type: cell-based; settings: plate incorporation
[7] = test system: Salmonella typhimurium TA 102; assay: Ames bacterial reverse mutation assay, plate incorporation method; assay type: cell-based
[8] = test system: Salmonella typhimurium TA 1535; assay type: cell-based; settings: pre-incubation
[9] = test system: Salmonella typhimurium TA 100; assay type: cell-based; settings: pre-incubation
[10] = test system: Salmonella typhimurium TA 102; assay: Ames bacterial reverse mutation assay, pre-incubation method; assay type: cell-based
plasma protein = settings: human plasma; 1 µM; mean ± SE
in vitro = settings: both, human, plasma, pH 7.4
[11] = −S9, positive control 0.05 mg/plate
[12] = −S9, positive control 0.01 mg/plate
[13] = +S9, positive control 0.0025 mg/plate
[14] = +S9, positive control 0.01 mg/plate
[15] = −S9, positive control 4 µL/plate

Structure (SMILES): Nc1ccc([N+](=O)[O-])cc1N [4-NOPD, 4-nitro-o-phenylenediamine, reference compound]
- Mean plate counts (revertant colonies) [1, 11]: 107.0±6.2
- Mean plate counts (revertant colonies) [2, 12]: 296.0±8.0
- Mean plate counts (revertant colonies) [3, 11]: 120.0±12.0
- Mean plate counts (revertant colonies) [4, 12]: 674.0±34.7

Structure (SMILES): Nc1ccc2cc3ccccc3cc2c1 [2-aminoanthracene, reference compound]
- Mean plate counts (revertant colonies) [5, 13]: 150.0±12.5
- Mean plate counts (revertant colonies) [1, 13]: 133.3±8.1
- Mean plate counts (revertant colonies) [2, 13]: 741.3±63.8
- Mean plate counts (revertant colonies) [6, 13]: 1042.0±61.3
- Mean plate counts (revertant colonies) [7, 14]: 1716.7±134.6
- Mean plate counts (revertant colonies) [8, 13]: 132.7±9.9
- Mean plate counts (revertant colonies) [3, 13]: 125.0±5.0
- Mean plate counts (revertant colonies) [4, 13]: 958.0±83.6
- Mean plate counts (revertant colonies) [9, 13]: 1118.0±42.6
- Mean plate counts (revertant colonies) [10, 14]: 1395.3±153.1

Structure (SMILES): [N-]=[N+]=[N-].[Na+] [sodium azide, reference compound]
- Mean plate counts (revertant colonies) [5, 12]: 966.7±12.2
- Mean plate counts (revertant colonies) [6, 12]: 870.7±39.3
- Mean plate counts (revertant colonies) [8, 12]: 974.7±41.1
- Mean plate counts (revertant colonies) [9, 12]: 1181.3±50.6

Structure (SMILES): COc1ccc(CCN(C)CCCC(C#N)(c2ccc(OC)c(OC)c2)C(C)C)cc1OC (stereo not shown) [Verapamil, reference compound]
- fb (bound fraction) (plasma protein): 0.907 ± 0.007

Structure (SMILES): COS(C)(=O)=O [methyl methanesulphonate, methyl methanesulfonate, reference compound]
- Mean plate counts (revertant colonies) [7, 15]: 2510.7±123.6
- Mean plate counts (revertant colonies) [10, 15]: 1238.7±126.0

Structure (SMILES): CC(=O)CC(c1ccccc1)c1c(O)c2ccccc2oc1=O (stereo not shown) [Warfarin, reference compound]
- fraction unbound at 4 h, 1 µM (in vitro): 0.035 ± 0.003
